Reference: the supplement of paper PMC10307832

Key:
Assay in all cases: relative viability (nuclei count vs DMSO), 5 days (fraction); higher = more cells survive
[1] = compound: CC[C@@H]1C(=O)N(C)c2cnc(Nc3ccc(C(=O)NC4CCN(C)CC4)cc3OC)nc2N1C1CCCC1 [BI-2536] + Cc1nc(NC(=O)N2CCC[C@H]2C(N)=O)sc1-c1ccnc(C(C)(C)C(F)(F)F)c1 [Alpelisib] (partner 2 µM)
Outline: (§1)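 Relative viability was taken as the ratio of nuclei in treated wells to nuclei in vehicle wells. Lung cancer cell lines in 1536-well plates received compounds by pin tool one day after seeding, either one drug alone or a fixed anchor-drug dose plus five library-drug doses (not always all listed) in √10 steps. Nuclei were counted on 4× images after 5 days of treatment, and values are medians of duplicate plates.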

[2] = compound: CC[C@@H]1C(=O)N(C)c2cnc(Nc3ccc(C(=O)NC4CCN(C)CC4)cc3OC)nc2N1C1CCCC1 [BI-2536] + Cc1cc(Nc2cc(N3CCN(C)CC3)nc(Sc3ccc(NC(=O)C4CC4)cc3)n2)n[nH]1 [Tozasertib] (partner 0.1 µM)
Outline: as §1

[3] = compound: CC[C@@H]1C(=O)N(C)c2cnc(Nc3ccc(C(=O)NC4CCN(C)CC4)cc3OC)nc2N1C1CCCC1 [BI-2536] + CC(=O)c1c(C)c2cnc(Nc3ccc(N4CCNCC4)cn3)nc2n(C2CCCC2)c1=O [Palbociclib] (partner 0.5 µM)
Outline: as §1

[4] = compound: CC[C@@H]1C(=O)N(C)c2cnc(Nc3ccc(C(=O)NC4CCN(C)CC4)cc3OC)nc2N1C1CCCC1 [BI-2536] + N=C(N)NC(=N)NCCc1ccccc1 [Phenformin] (partner 250 µM)
Outline: as §1

Cell Line | relative viability ([1]; first compound 0.01 µM) | relative viability ([1]; first compound 0.03162 µM) | relative viability ([1]; first compound 0.1 µM) | relative viability ([1]; first compound 0.3162 µM) | relative viability ([1]; first compound 1 µM) | relative viability ([2]; first compound 0.01 µM) | relative viability ([2]; first compound 0.03162 µM) | relative viability ([2]; first compound 0.1 µM) | relative viability ([2]; first compound 0.3162 µM) | relative viability ([2]; first compound 1 µM) | relative viability ([3]; first compound 0.01 µM) | relative viability ([3]; first compound 0.03162 µM) | relative viability ([3]; first compound 0.1 µM) | relative viability ([3]; first compound 0.3162 µM) | relative viability ([3]; first compound 1 µM) | relative viability ([4]; first compound 0.01 µM) | relative viability ([4]; first compound 0.03162 µM) | relative viability ([4]; first compound 0.1 µM) | relative viability ([4]; first compound 0.3162 µM) | relative viability ([4]; first compound 1 µM)
NCI-H647 | 1.19 | 0.57 | 0.571 | 0.0897 | 0.091 | 0.34 | 0.433 | 0.209 | 0.132 | 0.103 | 0.265 | 0.473 | 0.266 | 0.0799 | 0.06 | 0.423 | 0.349 | 0.107 | 0.059 | 0.0765
HCC-78 | 0.357 | 0.295 | 0.379 | 0.211 | 0.164 | 0.405 | 0.304 | 0.325 | 0.253 | 0.259 | 0.566 | 0.475 | 0.431 | 0.436 | 0.318 | 0.74 | 0.721 | 0.636 | 0.315 | 0.197
NCI-H1755 | 0.989 | 0.903 | 0.711 | 0.284 | 0.296 | 0.559 | 0.595 | 0.477 | 0.344 | 0.317 | 0.473 | 0.477 | 0.424 | 0.377 | 0.385 | 0.603 | 0.578 | 0.328 | 0.237 | 0.253
NCI-H3122 | 0.877 | 0.662 | 0.354 | 0.198 | 0.203 | 0.363 | 0.207 | 0.266 | 0.297 | 0.246 | 0.191 | 0.175 | 0.171 | 0.132 | 0.159 | 0.38 | 0.34 | 0.137 | 0.158 | 0.127
PC-14 | 0.951 | 0.891 | 0.877 | 0.0726 | 0.0642 | 0.577 | 0.568 | 0.548 | 0.045 | 0.0586 | 0.458 | 0.489 | 0.0853 | 0.0424 | 0.0288 | 0.651 | 0.551 | 0.224 | 0.0459 | 0.0271
NCI-H2347 | 1.03 | 0.923 | 0.89 | 0.448 | 0.497 |  | 0.503 | 0.465 | 0.295 | 0.352 | 0.471 | 0.426 | 0.369 | 0.385 | 0.387 |  | 0.28 | 0.382 | 0.276 | 0.211
NCI-H2228 | 0.899 | 0.373 | 0.193 | 0.211 | 0.202 | 0.285 | 0.195 | 0.187 | 0.139 | 0.11 | 0.749 | 0.618 | 0.232 | 0.157 | 0.111 | 0.328 | 0.214 | 0.129 | 0.106 | 0.102
NCI-H1793 | 0.785 | 0.639 | 0.469 | 0.204 | 0.165 | 0.331 | 0.33 | 0.277 | 0.217 | 0.186 | 0.328 | 0.34 | 0.276 | 0.168 | 0.154 | 0.369 | 0.197 | 0.149 | 0.138 | 0.139
EKVX | 0.933 | 0.826 | 0.791 | 0.175 | 0.138 | 0.321 | 0.482 | 0.394 | 0.202 | 0.132 | 0.416 | 0.404 | 0.37 | 0.182 | 0.173 | 0.242 | 0.224 | 0.225 | 0.242 | 0.211
HOP-62 | 1.04 | 1.06 | 0.922 | 0.176 | 0.104 | 0.337 | 0.424 | 0.29 | 0.204 | 0.219 | 0.421 | 0.409 | 0.443 | 0.17 | 0.143 | 0.7 | 0.654 | 0.43 | 0.141 | 0.141
NCI-H2126 | 0.739 | 0.731 | 0.62 | 0.269 | 0.237 | 0.884 | 0.373 | 0.296 | 0.236 | 0.269 | 0.324 | 0.368 | 0.352 | 0.276 | 0.232 | 0.5 | 0.495 | 0.231 | 0.279 | 0.247
SW 1573 | 0.821 | 0.842 | 0.791 | 0.162 | 0.123 | 0.192 | 0.166 | 0.159 | 0.127 | 0.121 | 0.347 | 0.237 | 0.172 | 0.116 | 0.0925 | 0.333 | 0.283 | 0.131 | 0.106 | 0.0811
NCI-H358 | 0.995 | 0.537 | 0.154 | 0.158 | 0.159 | 0.113 | 0.105 | 0.103 | 0.0917 | 0.0924 | 0.132 | 0.133 | 0.104 | 0.0605 | 0.0928 | 0.363 | 0.172 | 0.0663 | 0.0665 | 0.072
EPLC-272H | 0.951 | 0.758 |  | 0.0883 | 0.114 | 0.187 | 0.252 | 0.215 | 0.148 | 0.164 | 0.293 | 0.315 | 0.234 | 0.168 | 0.152 | 0.241 | 0.28 | 0.105 | 0.109 | 0.103
